Legend:
B16 melanomas = details: cited from earlier work
glutathione [1] = assay: Tissue glutathione after oral administration of sulfoximines (Table 5); type: in vivo, mouse; details: for % Decrease in glutathione / Glutathione level: 2 mmol/Kg oral
Method: (§1) Male mice (Swiss Webster) were fasted overnight (about 16 hr.) L-buthionine-SR-sulfoximine (BSO, S-n-butyl homocysteine-SR-sulfoximine), L-S-cyclohexylmethyl homocysteine-SR-sulfoximine (CHMSO); L-S-2-ethylbutylhomocysteine-SR-sulfoximine (2 EtBSO, L-S-2-ethylbutyl homocysteine-SR-sulfoximine, or saline (0.9% NaCl) were administered to mice at 2 mmol/Kg by intubation (100 mM; pH about 1 with HCl (200 mM). At the times indicated, plasma and tissues were obtained and assayed for glutathione (GSH+1/2 GSSG) as described by Anderson, Methods in Enzymology, 1985, 113:548-555. (See Table 4 and 5.)

tumor cell lines = details: glucose oxidase, activated macrophages and granulocytes with phorbol myristate acetate; cited from earlier work
resistant tumors = details: continuous intraperitoneal infusion of BSO; cited from earlier work
[2] = system: human lymphoid cell lines; details: cited from earlier work
resistant cells = details: glutathione depletion by BSO; cited from earlier work
glutathione [3] = assay: Tissue glutathione after oral administration of sulfoximines (Table 4); type: in vivo, mouse; details: 2 mmol/Kg oral
Method: as §1

[4] = system: human ovarian tumor cells; details: grown in nude mice; cited from earlier work
[5] = Detection of compound in mouse bile; type: in vivo
[6] = target: T1, γ-Glutamylcysteine Synthetase (Rattus norvegicus, UniProt P19468); assay: Inhibition of γ-glutamylcysteine synthetase (preincubation assay); type: biochemical; details: 30 min preincubation, 22° C.; read-out: Kiapp; Concentration for 50% Inhibition
T1 construct: Rat kidney γ-Glutamylcysteine synthetase was purified from Sprague Dawley (Taconic Farms) rats; from tissue; host or cells: rat kidney (Sprague Dawley, Taconic Farms)
T1 sequence (P19468 1-637): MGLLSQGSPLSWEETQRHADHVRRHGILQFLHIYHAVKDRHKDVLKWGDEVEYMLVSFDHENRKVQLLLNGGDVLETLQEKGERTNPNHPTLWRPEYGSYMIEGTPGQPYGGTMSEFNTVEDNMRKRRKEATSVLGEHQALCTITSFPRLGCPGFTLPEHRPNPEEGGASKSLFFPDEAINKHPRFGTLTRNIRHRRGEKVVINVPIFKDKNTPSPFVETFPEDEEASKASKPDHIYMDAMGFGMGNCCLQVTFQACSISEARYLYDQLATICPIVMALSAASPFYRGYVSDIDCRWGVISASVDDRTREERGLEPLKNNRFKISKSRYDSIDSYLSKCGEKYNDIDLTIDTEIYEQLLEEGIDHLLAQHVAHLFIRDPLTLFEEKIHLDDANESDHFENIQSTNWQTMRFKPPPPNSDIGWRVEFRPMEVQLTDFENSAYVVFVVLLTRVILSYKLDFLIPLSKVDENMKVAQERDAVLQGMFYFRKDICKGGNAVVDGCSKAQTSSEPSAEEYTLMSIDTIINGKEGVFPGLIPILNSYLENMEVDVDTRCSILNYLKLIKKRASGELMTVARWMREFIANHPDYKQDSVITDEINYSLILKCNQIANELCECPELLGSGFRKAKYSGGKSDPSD
T1 sequence (P48508 1-274 partner): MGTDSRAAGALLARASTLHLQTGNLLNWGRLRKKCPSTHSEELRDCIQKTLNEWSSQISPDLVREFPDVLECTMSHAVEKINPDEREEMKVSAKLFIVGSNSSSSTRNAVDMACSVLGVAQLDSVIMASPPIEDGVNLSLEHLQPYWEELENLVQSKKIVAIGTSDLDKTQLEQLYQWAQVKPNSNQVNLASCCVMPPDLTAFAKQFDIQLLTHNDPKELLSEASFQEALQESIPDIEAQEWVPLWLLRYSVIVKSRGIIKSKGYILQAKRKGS
Method: Rat kidney γ-Glutamylcysteine synthetase was purified from Sprague Dawley (Taconic Farms) rats (Seelig., Methods in Enzymology, 1985, 113:379-390).
The preincubation assay of γ-glutamylcysteine synthetase is given below. γ-Glutamylcysteine synthetase (4.6 units) was added to a mixture (final volume, 50 μl) containing 100 mM Tris/HCl (pH 8.2), 5 mM ATP, 20 mM MgCl2, 0.2 mM EDTA, and the sulfoximine being evaluated. After incubation at 22° C. for 30 minutes, a 45 μl aliquot of the preincubation mixture was added to the assay as follows.
γ-Glutamylcysteine synthetase was assayed as follows (Griffith et al, J. Biological Chem., 1979, 254:1205-1210). The reaction mixture (final volume, 1.0 ml) contained 100 mM Tris/HCl (pH 8.2), 120 mM KCl, 5 mM phosphoenolpyruvate, 20 mM MgCl2, 10 mM sodium L-glutamate, 10 mM L-α-aminobutyric acid, 0.2 mM EDTA, 0.4 mM NADH, pyruvate kinase (10 IU), and lactate dehydrogenase (10 IU). The reaction (37° C.) was initiated by the addition of γ-glutamylcysteine synthetase and the oxidation of NADH, equivalent to ADP formation, was recorded at 340 nm.

[7] = system: mouse L1210 leukemia cells; details: resistant cells treated with BSO; cited from earlier work
[8] = mice depleted of glutathione by buthionine sulfoximine; cited from earlier work

For CCCCS(=N)(=O)CCC(N)C(=O)O [BSO, L-S-butyl homocysteine-SR-sulfoximine], the longevity (B16 melanomas; BSO plus irradiation) is listed as “significant increase in longevity”, the tumor size (B16 melanomas; BSO plus irradiation) is listed as “significant decrease in tumor size” and the “tumor glutathione content relative to untreated controls” value (B16 melanomas; when irradiated, tumors in footpads of mice) is listed as “about 20%”. The “decrease in brain glutathione levels” value (glutathione [1]; 2 mmol/kg, 12 hours, experimental error about 5%) was roughly 20%, the “decrease in glutathione levels (cardio-toxicity)” value (glutathione [1]; 2 hours, 2 mmol/kg, mice) was 22% and the “% Decrease in glutathione” value (glutathione [1]; brain, 2 hr) was 0%. For the same compound, the Glutathione level (glutathione [1]; brain, 2 hr) was 2.17 µmol/g, the “% Decrease in glutathione” value (glutathione [1]; brain, 4 hr) was 10% and the Glutathione level (glutathione [1]; brain, 4 hr) was 1.95 µmol/g. The “% Decrease in glutathione” value (glutathione [1]; brain, 8 hr) was 12%, the Glutathione level (glutathione [1]; brain, 8 hr) was 2.04 µmol/g and the “% Decrease in glutathione” value (glutathione [1]; brain, 12 hr) was 18%. The Glutathione level (glutathione [1]; brain, 12 hr) was 1.64 µmol/g, the “% Decrease in glutathione” value (glutathione [1]; heart, 2 hr) was 22% and the Glutathione level (glutathione [1]; heart, 2 hr) was 0.86 µmol/g. For the same compound, the “% Decrease in glutathione” value (glutathione [1]; heart, 4 hr) was 17%, the Glutathione level (glutathione [1]; heart, 4 hr) was 0.91 µmol/g and the “% Decrease in glutathione” value (glutathione [1]; heart, 8 hr) was 36%. For the same compound, the Glutathione level (glutathione [1]; heart, 8 hr) was 0.65 µmol/g, the “% Decrease in glutathione” value (glutathione [1]; heart, 12 hr) was 49% and the Glutathione level (glutathione [1]; heart, 12 hr) was 0.58 µmol/g. For the same compound, the “% Decrease in glutathione” value (glutathione [1]; kidney, 2 hr) was 71%, the Glutathione level (glutathione [1]; kidney, 2 hr) was 0.81 µmol/g and the “% Decrease in glutathione” value (glutathione [1]; kidney, 4 hr) was 80%. For the same compound, the Glutathione level (glutathione [1]; kidney, 4 hr) was 0.57 µmol/g, the “% Decrease in glutathione” value (glutathione [1]; kidney, 8 hr) was 86% and the Glutathione level (glutathione [1]; kidney, 8 hr) was 0.44 µmol/g. For the same compound, the “% Decrease in glutathione” value (glutathione [1]; kidney, 12 hr) was 91%, the Glutathione level (glutathione [1]; kidney, 12 hr) was 0.30 µmol/g and the “% Decrease in glutathione” value (glutathione [1]; liver, 2 hr) was 71%. The Glutathione level (glutathione [1]; liver, 2 hr) was 1.50 µmol/g, the “% Decrease in glutathione” value (glutathione [1]; liver, 4 hr) was 87% and the Glutathione level (glutathione [1]; liver, 4 hr) was 0.70 µmol/g. For the same compound, the “% Decrease in glutathione” value (glutathione [1]; liver, 8 hr) was 89%, the Glutathione level (glutathione [1]; liver, 8 hr) was 0.60 µmol/g and the “% Decrease in glutathione” value (glutathione [1]; liver, 12 hr) was 85%. The Glutathione level (glutathione [1]; liver, 12 hr) was 0.73 µmol/g, the “% Decrease in glutathione” value (glutathione [1]; plasma, 2 hr) was 56% and the Glutathione level (glutathione [1]; plasma, 2 hr) was 9.8 µM. For the same compound, the “% Decrease in glutathione” value (glutathione [1]; plasma, 4 hr) was 68%, the Glutathione level (glutathione [1]; plasma, 4 hr) was 7.1 µM and the “% Decrease in glutathione” value (glutathione [1]; plasma, 8 hr) was 78%. For the same compound, the Glutathione level (glutathione [1]; plasma, 8 hr) was 5.1 µM, the “% Decrease in glutathione” value (glutathione [1]; plasma, 12 hr) was 77% and the Glutathione level (glutathione [1]; plasma, 12 hr) was 5.5 µM. The degree of cytolysis (tumor cell lines) was “enhanced the degree of cytolysis”, the life span (resistant tumors) was “increase in the life span” and the “sensitization of tumors to phenylalanine mustard” value (resistant tumors) was “sensitization of the tumors to the effects of phenylalanine mustard was achieved”. The “sensitivity to γ-radiation” value ([2]; cells with 4-5% of control glutathione) was “much more sensitive”, the sensitivity to radiation ([2]; glutathione about 5% of the control levels) was “marked increase in sensitivity to radiation” and the “reversal of drug resistance” value (resistant cells) was “reversal of drug resistance”. For the same compound, the “% Decrease in glutathione” value (glutathione [3]; brain, 2 hr) was 24%, the Glutathione level (glutathione [3]; brain, 2 hr) was 1.86 µmol/g and the “% Decrease in glutathione” value (glutathione [3]; brain, 12 hr) was 18%. The Glutathione level (glutathione [3]; brain, 12 hr) was 1.73 µmol/g, the “% Decrease in glutathione” value (glutathione [3]; kidney, 2 hr) was 80% and the Glutathione level (glutathione [3]; kidney, 2 hr) was 0.69 µmol/g. For the same compound, the “% Decrease in glutathione” value (glutathione [3]; kidney, 12 hr) was 87%, the Glutathione level (glutathione [3]; kidney, 12 hr) was 0.45 µmol/g and the “% Decrease in glutathione” value (glutathione [3]; liver, 2 hr) was 75%. For the same compound, the Glutathione level (glutathione [3]; liver, 2 hr) was 1.23 µmol/g, the “% Decrease in glutathione” value (glutathione [3]; liver, 12 hr) was 78% and the Glutathione level (glutathione [3]; liver, 12 hr) was 1.10 µmol/g. The “% Decrease in glutathione” value (glutathione [3]; plasma, 2 hr) was 59%, the Glutathione level (glutathione [3]; plasma, 2 hr) was 9.7 µM and the “% Decrease in glutathione” value (glutathione [3]; plasma, 12 hr) was 69%. The Glutathione level (glutathione [3]; plasma, 12 hr) was 7.2 µM, the reversal of resistance [4] was “reversal of resistance” and the “detection in mouse bile” value [5] was “no BSO was detected”. The Ki [6] was 600 nM, the “sensitivity of resistant cells to phenylalanine mustard” value [7] was “resensitization of the tumor cells to phenylalanine mustard” and the “decrease in LD50 value of acetaminophen” value [8] was “about 80%”.

From US5476966A, “Method for depletion of glutathione” (Cornell Research Foundation, Inc., priority 1995, dated 1995)
